Measured values published in patent US9220680B2, “Compositions and methods for localized drug delivery through mammary papillae” (South Dakota State University, priority 2012, dated 2015).

Tests used:
[1] = Permeation across human mammary areola vs human breast skin (Experiments 19-21); conditions: cadaver tissue; donor in 50:50 ethanol:water; 48 hours
Method: (§1) Mammary areolae and skin tissues were procured from a cadaver (Pacific Islander). […] The drug solutions were spiked with radioactive substances. Now 500 μl of the formulation was placed in the donor. Receptor medium was PBS with 7.4 pH. Three […] samples of donor were taken to determine DPM of donors. 200 μl samples were taken from the receptor at pre-determined time points. […] Results may be seen in FIG. 44.
as §1, with “45.” for “44.”
as §1, with “46.” for “44.”

[2] = Transmammary permeation across porcine mammary papilla with and without removal of the keratin plug (Experiments 7-10); format: in vitro ADME; conditions: porcine mammary papilla
Text: Keratin plug was removed from human and porcine mammary papilla using an alcoholic cotton swab. The swab was gently rubbed on the surface of the mammary papilla. The mammary papilla was observed under the microscope to confirm the removal of the plug from the surface and to confirm that epidermis of the mammary papilla was not damaged during this procedure.
The drug solutions were spiked with radioactive substances. […] Receptor medium was PBS with 7.4 pH.
(§2) Mammary papillae tissues were thawed. Keratin plugs were removed from the mammary papilla tissues using swabs with ethanol. […] The drug solutions were spiked with radioactive substances. […] Receptor medium was PBS with 7.4 pH.
as §2
Mammary papillae tissues were thawed. Keratin plugs were removed from the mammary papilla tissues using swabs with ethanol. […] The drug solutions were spike with radioactive substances. […] Receptor medium was PBS with 7.4 pH.

[3] = Biodistribution of 5FU in rats 30 minutes after intraductal and intravenous injection (Experiment 24); format: in vivo, Sprague-Dawley rats; conditions: rat; for Drug per gram tissue of mammary papilla: 30 min, n=1
Method: (§3) The hair on the skin of the rats was removed using a hair removing formulation. The treatment was given after 24 hours to make sure the skin is recovered if damaged or altered due to the hair removal treatment.
(§4) Next day, the rats were placed under controlled Isoflurane anesthesia. Now 500 μl of Blood samples were collected from each animal before beginning the experiment, by retro-orbital technique, as a control. For intraductal injection the mammary papilla to be treated was gently wiped with an alcoholic cotton swab to remove the keratin plug. Now 50 μl of 5FU solution in saline (10 mg/ml) was injected into the duct of the mammary papilla under a stereo-microscope. After this the animal was removed from anesthesia and placed into the cage. In case of intravenous injection, similar to intraductal, 50 μl of 5FU solution in saline (10 mg/ml) was injected into the tail vein and the animal was placed into the cage for 30 minutes. At the end of 30 minutes 500 μl of blood sample was collected. After this the rats were euthanized. Now for intraductal injection the treated area of the rat was cleaned with water. The rat was opened from the abdominal skin. Treated mammary papilla and mammary gland existing underneath the treated mammary papilla was excised and collected. Lateral mammary papilla and mammary gland was collected along with distant mammary papilla and mammary gland, as controls. Followed by this other organs including heart, brain, liver, spleen, kidneys and lungs were collected. In case of intravenous treatment, blood was collected and mammary tissues (mammary papilla, mammary gland and surrounding breast skin) was collected along with other organs including heart, brain, liver, spleen, kidneys and lungs. All the tissues were weighed and then mechanically homogenized to extract the drug. The homogenates were mixed with hydrogen peroxide solution (30% v/v) and then radioactivity into the samples was measured by liquid scintillation counting. Similarly blood samples were centrifuged and the supernatants were analyzed by scintillation counting. Results may be seen in FIG. 50, Tables 30-31.

[4] = Biodistribution of 5FU in rats 6 hours after intraductal and intravenous injection (Experiment 23); format: in vivo, Sprague-Dawley rats; conditions: rat
Method: as §3
as §4, with “plug. Now 100 μl of” for “plug. Now 50 μl of”, “to intraductal, 100 μl of” for “to intraductal, 50 μl of”, “cage for 6 hours. At the” for “cage for 30 minutes. At the”, “end of 6 hours 500 μl” for “end of 30 minutes 500 μl”, “in FIG. 49, Table 28 and Table 29.” for “in FIG. 50, Tables 30-31.”

SMILES: O=c1[nH]cc(F)c(=O)[nH]1 [5FU, 5-fluorouracil]
- Permeability across human mammary areola compared with human breast skin [1]: lower than that across human breast skin
- Transmammary flux [2]: 10.79 μg/sq·cm/h
- Change of permeation upon removal of the keratin plugs (in words) ([2]; donor in 50:50 ethanol:water, 48 hours): increases slightly, though statistically not significant
- Drug per gram tissue, mammary gland ([3]; ID (30 min)): 0.018 µmol/g
- Drug per gram tissue, surrounding skin ([3]; ID (30 min)): 0.03 µmol/g
- Drug per gram tissue, mammary gland ([3]; IV (30 min)): 0.009 µmol/g
- Drug per gram tissue, surrounding skin ([3]; IV (30 min)): 0 µmol/g
- 5FU in vital organs of the body ([3]; intraductal and intravenous injection, 30 minutes): significant amount of 5FU in vital organs of the body including kidneys, liver and brain
- Drug per gram tissue of mammary papilla ([3]; intraductal injection 50 μl of 10 mg/ml 5FU in saline): 0.16 µmol/g
- Drug per gram tissue of mammary papilla ([3]; intravenous injection 50 μl of 10 mg/ml 5FU in saline): 0 µmol/g
- 5FU in vital organs of the body ([4]; intraductal and intravenous injection): significant amount of 5FU in vital organs of the body including kidneys, liver and brain
- Drug per gram tissue, mammary gland ([4]; intraductal injection): 0 µmol/g
- Drug per gram tissue, surrounding skin ([4]; intraductal injection): 0.23 µmol/g
- Drug per gram tissue of mammary papilla ([4]; intraductal injection 100 μl of 10 mg/ml 5FU in saline): 1.36 µmol/g
- Drug per gram tissue, mammary gland ([4]; intravenous injection): 0 µmol/g
- Drug per gram tissue, surrounding skin ([4]; intravenous injection): 0 µmol/g
- Drug per gram tissue of mammary papilla ([4]; intravenous injection 100 μl of 10 mg/ml 5FU in saline): 0 µmol/g
